Data taken from ChEMBL document CHEMBL1131738, “Rational design of N-[2-(2,5-dimethoxyphenylethyl)]-N'-[2-(5-bromopyridyl)]-thiourea (HI-236) as a potent non-nucleoside inhibitor of drug-resistant human immunodeficiency virus” (Bioorg Med Chem Lett, 1999).

Legend:
[1] = Inhibitory activity of compound on p24 production in peripheral blood mononuclear cells infected with HIV strain RT-MDR.; assay type: functional; settings: Homo sapiens
[2] = Inhibitory activity of compound on p24 production in peripheral blood mononuclear cells infected with HIV strain A17 variant.; assay type: functional; settings: Homo sapiens
[3] = Inhibitory activity of compound on p24 production in peripheral blood mononuclear cells infected with HIV strain A17.; assay type: functional; settings: Homo sapiens
[4] = Inhibitory activity of compound on p24 production in peripheral blood mononuclear cells infected with HIV strain HTLV IIIB wild type.; assay type: functional; settings: Homo sapiens
[5] = target: Human immunodeficiency virus type 1 reverse transcriptase (Human immunodeficiency virus 1, UniProt Q72547); assay: Inhibition of purified recombinant HIV-1 reverse transcriptase
[6] = Inhibitory activity of compound won p24 production in peripheral blood mononuclear cells infected with HIV strain HTLV IIIB wild type.; assay type: functional; settings: Homo sapiens

Compound: COc1ccc(OC)c(CCNC(=S)Nc2ccc(Br)cn2)c1
- IC50 [1]: 5 nM
- IC50 [2]: 11000 nM
- IC50 [3]: 100 nM
- IC50 [4]: < 1 nM
- IC50 [5]: 100 nM

Compound: Fc1ccc(CCNC(=S)Nc2ccc(Br)cn2)cc1
- IC50 [5]: 6400 nM

Compound: Fc1ccccc1CCNC(=S)Nc1ccc(Br)cn1
- IC50 [1]: 5 nM
- IC50 [2]: 41000 nM
- IC50 [3]: 200 nM
- IC50 [4]: < 10 nM
- IC50 [5]: 600 nM

Compound: S=C(NCCC1=CCCCC1)Nc1ccc(Cl)cn1
- IC50 [4]: 3 nM
- IC50 [5]: 3700 nM

Compound: Fc1cccc(CCNC(=S)Nc2ccc(Br)cn2)c1
- IC50 [1]: 20 nM
- IC50 [4]: < 1 nM
- IC50 [5]: 700 nM

Compound: S=C(NCCc1ccccc1Cl)Nc1ccc(Br)cn1
- IC50 [1]: 4 nM
- IC50 [4]: < 10 nM
- IC50 [5]: 700 nM

Compound: CC(C)Nc1cccnc1N1CCN(C(=O)c2cc3cc(NS(C)(=O)=O)ccc3[nH]2)CC1 [DELAVIRDINE]
- IC50 [1]: 400 nM
- IC50 [2]: > 100000 nM
- IC50 [3]: 50000 nM
- IC50 [4]: 9 nM

Compound: CCOCn1c(Cc2ccccc2)c(C(C)C)c(=O)[nH]c1=O [EMIVIRINE]
- IC50 [1]: 300 nM
- IC50 [5]: 800 nM

Compound: Cc1ccnc2c1NC(=O)c1cccnc1N2C1CC1 [NEVIRAPINE]
- IC50 [1]: 5000 nM
- IC50 [6]: 34 nM
- IC50 [2]: > 100000 nM
- IC50 [3]: > 100000 nM

Compound: S=C(NCCc1ccccn1)Nc1ccc(Br)cn1 [TROVIRDINE]
- IC50 [1]: 20 nM
- IC50 [4]: 7 nM

Compound: Cc1cn([C@H]2C[C@H](N=[N+]=[N-])[C@@H](CO)O2)c(=O)[nH]c1=O [ZIDOVUDINE]
- IC50 [1]: 150 nM
- IC50 [2]: 4 nM
- IC50 [3]: 6 nM
- IC50 [4]: 4 nM
